The source of these data is PubChem BioAssay (NCI).

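Values below derive from 48-hour exposures of cells grown in 96-well plates, with endpoints linearly interpolated between the two concentrations bracketing the appropriate inhibition level. GI50 is the concentration that inhibits growth by half.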 Bounds are passed on as bounds.

The test relates to SN12K1 renal. The experiment in a line: growth of human tumour cells (NCI), 48 h.

Turning to `Cc1c[nH]c2c1C13CC1CN(C(=O)c1cc4cc(NC(=O)c5cc6ccccc6o5)ccc4[nH]1)C3=CC2=O` (stereo unspecified), the GI50 was greater than 1.17 ng/mL.
